Reference: patent US20260035339A1, “TETRAHYDRONAPHTHALENE DERIVATIVE” (ATRANSEN PHARMA LTD., priority 2022, published 2026)
pIC50: −log10 of the molar value.

Columns and labels:
[1] = target: human LAT1 (Homo sapiens, UniProt Q01650); experiment: [14C]L-leucine uptake inhibition test using human-LAT1 stably expressing HEK293 cell line; type: cell-based; design: having full-length cDNA of human LAT1 or LAT2 inserted under a promoter of CMV; expressed in transfected cells; key to Assay Data: degree of [14C]L-leucine uptake inhibition compared with BCH: a test compound having a higher inhibitory effect than BCH is denoted by A; a test compound having the same inhibitory effect as BCH is denoted by B; a test compound having a lower inhibitory effect than BCH is denoted by C
human LAT1, sequence (Q01650 whole entry): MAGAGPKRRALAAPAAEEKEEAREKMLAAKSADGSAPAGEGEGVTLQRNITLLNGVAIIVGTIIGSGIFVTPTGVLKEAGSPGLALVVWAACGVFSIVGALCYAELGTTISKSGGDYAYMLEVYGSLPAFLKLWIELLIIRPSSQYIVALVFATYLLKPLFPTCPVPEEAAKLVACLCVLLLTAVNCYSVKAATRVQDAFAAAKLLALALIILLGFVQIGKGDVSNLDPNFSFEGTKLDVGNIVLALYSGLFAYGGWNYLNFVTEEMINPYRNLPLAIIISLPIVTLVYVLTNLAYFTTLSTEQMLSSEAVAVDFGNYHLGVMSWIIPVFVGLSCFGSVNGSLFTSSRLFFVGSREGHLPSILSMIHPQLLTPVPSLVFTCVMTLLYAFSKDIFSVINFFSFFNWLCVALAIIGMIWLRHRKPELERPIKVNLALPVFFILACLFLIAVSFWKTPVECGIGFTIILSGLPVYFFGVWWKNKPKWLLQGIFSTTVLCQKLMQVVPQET
human LAT1, sequence (P08195 102-630 partner): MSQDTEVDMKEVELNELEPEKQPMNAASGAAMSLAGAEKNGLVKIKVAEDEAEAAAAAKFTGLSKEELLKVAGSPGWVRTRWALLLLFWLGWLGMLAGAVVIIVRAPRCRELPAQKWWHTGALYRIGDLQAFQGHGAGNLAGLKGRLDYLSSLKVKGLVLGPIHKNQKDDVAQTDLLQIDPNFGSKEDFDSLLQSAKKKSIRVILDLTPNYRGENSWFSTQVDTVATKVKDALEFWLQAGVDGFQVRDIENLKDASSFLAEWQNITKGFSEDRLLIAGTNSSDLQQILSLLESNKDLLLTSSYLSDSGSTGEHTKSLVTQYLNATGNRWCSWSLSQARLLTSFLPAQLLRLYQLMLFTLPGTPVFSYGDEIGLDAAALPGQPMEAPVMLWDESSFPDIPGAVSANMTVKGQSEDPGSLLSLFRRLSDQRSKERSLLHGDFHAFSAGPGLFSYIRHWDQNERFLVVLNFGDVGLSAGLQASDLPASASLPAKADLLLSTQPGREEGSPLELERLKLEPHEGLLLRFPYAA
Outline: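 HEK293 cells stably expressing human LAT1, preincubated 10 min in Na^+-free HBSS, then exposed 1 min to 1 μM [14C]L-leucine with racemic compound (0.1, 1.0, 10, 0 μM). Lysate radioactivity counted by scintillation and normalized to protein as uptake per mg protein per minute; graded against BCH.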

[2] = system: Mouse colorectal cancer-derived CT26 cells; experiment: Cell proliferation inhibitory effect using mouse colorectal cancer cells (CCK-8 assay); type: cell-based; details: 72 hours compound treatment, read-out: Evaluation of IC50 (proliferation inhibition rate of 50%)
Outline: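 Cells seeded at 1000 per well in RPMI 1640 with 10% FBS; after 24 h medium replaced with compound at 0.01-30 μM. Viable cells counted by CCK-8 after 72 h of treatment, and IC50 taken as the concentration giving 50% proliferation inhibition relative to untreated control.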

suppression rate of labeled leucine uptake ([1]; 0.1 μM of the compound (racemic form)): about 70%
Assay Data: degree of [14C]L-leucine uptake inhibition compared with BCH ([1]; compound (racemic form) and BCH at 0.1, 1.0, 10 μM, 1 μM [14C]L-leucine, 1 minute, Na+-free HBSS): A
pIC50 ([1]; racemic form, 1 μM [14C]L-leucine, 1 minute, read-out: 50% suppression concentration (racemic form), [14C]L-leucine uptake): ≥ 7.00
LAT1 inhibitory effect, compounds singled out (in words) ([1]; same test as Table 1): particularly remarkable effects
pIC50 [2]: ≥ 6.05
Compound: NC1(C(=O)O)CCc2ccc(Oc3ccc4ccccc4c3)cc2C1 (centres unmarked) [Example 1-1, 2-carboxy-7-(naphthalene-2-yloxy)-1,2,3,4-tetrahydronaphthalene-2-aminium chloride]
